Tests used:
Format in all cases: functional
Proline--tRNA ligase = biological target: T1, Proline--tRNA ligase (Plasmodium falciparum (isolate 3D7), UniProt Q8I5R7); test: MMV: ProRS recombinant Plasmodium falciparum Prolyl-tRNA-synthetase, assay with yeast tRNA, ATP, and proline and 3 uM MMV malaria box compound, assay read out with kinase glo as % inhibition.
T1 sequence (Q8I5R7 whole entry): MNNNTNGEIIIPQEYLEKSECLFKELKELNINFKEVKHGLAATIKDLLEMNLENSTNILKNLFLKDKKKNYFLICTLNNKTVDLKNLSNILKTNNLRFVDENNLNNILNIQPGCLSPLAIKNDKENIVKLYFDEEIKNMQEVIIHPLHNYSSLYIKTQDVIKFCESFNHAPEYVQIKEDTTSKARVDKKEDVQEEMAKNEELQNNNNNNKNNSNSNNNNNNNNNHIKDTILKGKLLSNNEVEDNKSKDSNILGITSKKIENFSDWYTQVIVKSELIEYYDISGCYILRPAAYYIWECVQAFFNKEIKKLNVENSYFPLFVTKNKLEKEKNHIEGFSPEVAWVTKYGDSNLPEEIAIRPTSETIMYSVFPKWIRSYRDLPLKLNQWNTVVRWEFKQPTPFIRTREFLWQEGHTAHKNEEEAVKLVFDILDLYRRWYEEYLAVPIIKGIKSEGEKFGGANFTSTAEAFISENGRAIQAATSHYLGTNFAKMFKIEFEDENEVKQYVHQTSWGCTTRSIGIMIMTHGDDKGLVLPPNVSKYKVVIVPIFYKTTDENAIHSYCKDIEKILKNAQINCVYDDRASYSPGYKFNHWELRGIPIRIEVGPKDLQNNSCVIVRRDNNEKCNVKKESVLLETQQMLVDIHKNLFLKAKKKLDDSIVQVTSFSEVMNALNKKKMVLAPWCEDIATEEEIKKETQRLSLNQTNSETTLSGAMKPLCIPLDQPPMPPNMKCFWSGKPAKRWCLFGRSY

[1] = biological target: Calcium-dependent protein kinase 1 (Plasmodium falciparum, UniProt P62344); test: MMV: CDPK1 Protein kinase inhibition assay using recombinant PfCDPK1, syntide 2 peptide substrate, ATP and KinaseGlo to measure % inhibition at 1 uM MMV box compound.
Sequence of Calcium-dependent protein kinase 1 (P62344 whole entry): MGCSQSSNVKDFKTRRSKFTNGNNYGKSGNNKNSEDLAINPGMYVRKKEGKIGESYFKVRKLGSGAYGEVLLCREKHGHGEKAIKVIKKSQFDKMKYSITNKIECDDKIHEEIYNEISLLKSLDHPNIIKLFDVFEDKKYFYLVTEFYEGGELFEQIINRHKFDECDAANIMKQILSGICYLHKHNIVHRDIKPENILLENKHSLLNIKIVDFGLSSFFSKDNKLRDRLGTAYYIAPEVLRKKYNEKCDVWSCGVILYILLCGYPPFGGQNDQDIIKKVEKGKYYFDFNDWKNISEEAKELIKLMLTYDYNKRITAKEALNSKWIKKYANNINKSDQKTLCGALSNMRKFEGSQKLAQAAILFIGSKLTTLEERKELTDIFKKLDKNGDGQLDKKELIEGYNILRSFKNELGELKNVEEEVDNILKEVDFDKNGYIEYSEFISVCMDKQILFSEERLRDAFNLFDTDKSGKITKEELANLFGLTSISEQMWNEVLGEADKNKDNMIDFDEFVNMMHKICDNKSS

Lysine--tRNA ligase = Lysine--tRNA ligase (Plasmodium falciparum (isolate 3D7), UniProt Q8IDJ8); test: MMV: KRS recombinant Plasmodium falciparum Lysyl-tRNA-synthetase, assay with yeast tRNA, ATP, and lysine and 3 uM MMV malaria box compound, assay read out with kinase glo as % inhibition.
Sequence of Lysine--tRNA ligase (Q8IDJ8 whole entry): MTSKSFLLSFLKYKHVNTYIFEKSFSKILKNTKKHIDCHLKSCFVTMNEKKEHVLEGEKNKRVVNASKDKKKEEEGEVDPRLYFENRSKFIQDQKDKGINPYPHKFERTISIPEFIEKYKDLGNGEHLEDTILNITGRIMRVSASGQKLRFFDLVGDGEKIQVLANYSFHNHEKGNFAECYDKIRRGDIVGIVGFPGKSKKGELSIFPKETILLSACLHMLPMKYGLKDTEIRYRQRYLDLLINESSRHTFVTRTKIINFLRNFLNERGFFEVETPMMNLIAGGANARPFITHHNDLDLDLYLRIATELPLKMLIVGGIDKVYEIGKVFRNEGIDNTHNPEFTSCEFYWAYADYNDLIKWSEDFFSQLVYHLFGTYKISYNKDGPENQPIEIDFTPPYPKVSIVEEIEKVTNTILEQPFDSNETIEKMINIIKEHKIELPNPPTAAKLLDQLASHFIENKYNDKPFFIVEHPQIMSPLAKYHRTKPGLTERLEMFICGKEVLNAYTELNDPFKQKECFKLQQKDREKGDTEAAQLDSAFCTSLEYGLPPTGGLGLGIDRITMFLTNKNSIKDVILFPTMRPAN

[2] = biological target: T2, Putative uncharacterized protein pk7 (Plasmodium falciparum, UniProt O96214); test: Final concentrations were 1 uM ATP, 2 mM DTT, 20 mM MgCl2, 2 mM MnCl2, 0.01% BSA, and 6 ug/ml PK7, in a buffer of 20 mM Tris-HCl (pH 7.5). The enzyme itself was the only substrate present (since autophosphorylation occurs); 100 uM 1NA-PP1 was used as a control inhibitor. Incubation time was 3 hours.
T2 sequence (O96214 whole entry): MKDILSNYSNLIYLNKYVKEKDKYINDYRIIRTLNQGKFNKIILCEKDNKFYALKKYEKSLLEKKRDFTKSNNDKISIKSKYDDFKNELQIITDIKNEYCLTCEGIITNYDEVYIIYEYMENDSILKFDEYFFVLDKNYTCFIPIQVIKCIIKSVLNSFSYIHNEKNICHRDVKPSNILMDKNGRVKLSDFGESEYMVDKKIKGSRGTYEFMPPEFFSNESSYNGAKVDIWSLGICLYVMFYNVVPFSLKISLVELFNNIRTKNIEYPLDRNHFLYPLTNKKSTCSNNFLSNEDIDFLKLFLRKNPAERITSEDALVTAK

[3] = biological target: T3, Cdk-related protein kinase 6 (Plasmodium falciparum, UniProt O77239); test: Final concentrations were 1.5 uM ATP, 5 mM MnCl2, and 15 ug/ml PK6 in a buffer of 100 mM Tris-HCl (pH 7.5). 50 ug/mL MBP was provided as the substrate; 10 uM staurosporine was used as a control inhibitor. Incubation time was 3 hours and 40 minutes.The catalytic activity of each kinase was considered proportional to ATP consumed, as determined from measurements of residual [ATP] with the luciferase-based reagent Kinase-Glo (Promega) following incubation. Luminescence (proportional to residual [ATP]) was measured on the plate readers FLx800 (BioTek Instruments, Winooski, VT, USA) and MicroBeta2.
T3 sequence (O77239 whole entry): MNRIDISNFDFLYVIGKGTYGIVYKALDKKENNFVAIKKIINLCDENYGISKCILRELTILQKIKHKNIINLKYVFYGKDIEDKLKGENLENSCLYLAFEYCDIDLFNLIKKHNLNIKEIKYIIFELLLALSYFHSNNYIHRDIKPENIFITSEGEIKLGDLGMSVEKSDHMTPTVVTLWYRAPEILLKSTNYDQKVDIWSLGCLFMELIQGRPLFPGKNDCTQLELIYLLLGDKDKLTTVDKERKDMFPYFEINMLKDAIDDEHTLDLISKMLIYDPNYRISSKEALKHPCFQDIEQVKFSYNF

[4] = biological target: T4, Calcium-dependent protein kinase 4 (Plasmodium falciparum (isolate 3D7), UniProt Q8IBS5); test: MMV: CDPK4 Protein kinase inhibition assay using recombinant PfCDPK4, syntide2 peptide substrate, ATP and KinaseGlo to measure % inhibition at 1 uM MMV box compound.
T4 sequence (Q8IBS5 whole entry): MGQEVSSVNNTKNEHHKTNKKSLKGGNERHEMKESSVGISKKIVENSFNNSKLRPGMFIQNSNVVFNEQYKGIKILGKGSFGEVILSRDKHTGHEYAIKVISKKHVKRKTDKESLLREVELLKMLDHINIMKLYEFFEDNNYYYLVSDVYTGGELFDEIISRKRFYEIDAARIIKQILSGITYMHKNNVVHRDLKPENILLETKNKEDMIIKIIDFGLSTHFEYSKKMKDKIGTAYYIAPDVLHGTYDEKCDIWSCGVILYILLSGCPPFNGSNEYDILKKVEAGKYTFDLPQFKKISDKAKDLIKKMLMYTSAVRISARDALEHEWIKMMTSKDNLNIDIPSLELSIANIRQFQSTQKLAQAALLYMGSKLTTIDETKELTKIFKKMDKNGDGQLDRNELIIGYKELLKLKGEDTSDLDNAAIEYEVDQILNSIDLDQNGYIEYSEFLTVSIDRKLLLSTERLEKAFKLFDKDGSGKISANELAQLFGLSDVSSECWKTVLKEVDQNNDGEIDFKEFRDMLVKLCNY

[5] = biological target: T5, Mitogen-activated protein kinase (Plasmodium falciparum, UniProt Q25917); test: Final concentrations were 1 uM ATP, 0.5 mM DTT, 1 mM MgCl2, 0.5 mg/mL BSA, and 10 ug/ml MAP2 in a buffer of 50 mM HEPES (pH 7.0). 0.5 mg/mL histone III-S served as the substrate (13); 100 uM AMP-PNP, an ATP analog, was used as a control inhibitor. Incubation time was 4 hours.
T5 sequence (Q25917 whole entry): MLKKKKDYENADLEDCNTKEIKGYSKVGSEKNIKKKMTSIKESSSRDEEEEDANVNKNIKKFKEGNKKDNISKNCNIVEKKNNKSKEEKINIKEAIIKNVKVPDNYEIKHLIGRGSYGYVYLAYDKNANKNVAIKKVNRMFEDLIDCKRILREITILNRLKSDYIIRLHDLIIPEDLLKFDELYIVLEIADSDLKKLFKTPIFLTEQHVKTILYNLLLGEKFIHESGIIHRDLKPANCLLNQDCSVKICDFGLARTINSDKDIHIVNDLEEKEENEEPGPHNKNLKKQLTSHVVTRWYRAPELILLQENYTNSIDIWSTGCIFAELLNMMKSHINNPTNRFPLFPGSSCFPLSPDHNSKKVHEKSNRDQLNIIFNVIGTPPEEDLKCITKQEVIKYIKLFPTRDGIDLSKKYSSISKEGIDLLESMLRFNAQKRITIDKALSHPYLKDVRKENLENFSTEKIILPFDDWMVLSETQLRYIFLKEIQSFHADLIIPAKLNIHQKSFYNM

Row | SMILES | IC50 (Proline--tRNA ligase) [µM] | IC50 [1] [µM] | IC50 (Lysine--tRNA ligase) [µM] | IC50 [2] [µM] | IC50 [3] [µM] | IC50 [4] [µM] | IC50 [5] [µM]
1 | COc1ccc(Nc2nc(N/N=C/c3ccc(O)cc3)nc(Nc3ccc([N+](=O)[O-])cc3)n2)cc1 | > 2.5 | > 1 | > 2.5 | > 1 | > 1 | > 1 | > 1
2 | Cn1c(C(=O)c2cccc3ccccc23)nc2ccccc21 | > 2.5 | > 1 | > 2.5 | > 1 | > 1 | > 1 | > 1
3 | OCCNc1nc(Nc2ccc(Cl)c(Cl)c2)nc2ccccc12 | > 2.5 | > 1 | > 2.5 | > 1 | > 1 | > 1 | > 1
4 | Nc1ccc(-c2nc3cc(Oc4ccc(Oc5ccc6[nH]c(-c7ccc(N)cc7)nc6c5)cc4)ccc3[nH]2)cc1 | > 2.5 | > 1 | > 2.5 | > 1 | > 1 | > 1 | > 1
5 | CCc1ccc(CNCC(O)c2ccccc2)cc1 (stereo not drawn) | > 2.5 | > 1 | > 2.5 | > 1 | > 1 | > 1 | > 1
6 | CCCn1c(=N)c(C(=O)NC2CCCCC2)cc2c(=O)n3cccc(C)c3nc21 | > 2.5 | > 1 | > 2.5 | > 1 | > 1 | > 1 | > 1
7 | Nc1ccn([C@@H]2O[C@H](CO)[C@@H](O)[C@H]2O)c(=O)n1 [CYTIDINE] | > 2.5 | > 1 | > 2.5 | > 1 | > 1 | > 1 | > 1
8 | O=C(Nc1cccc(C2=NCCN2)c1)Nc1cccc(C2=NCCN2)c1 [IMIDOCARB] | > 2.5 | > 1 | > 2.5 | > 1 | > 1 | > 1 | > 1
9 | CN(C)c1ccc(C(O)(c2ccc(N(C)C)cc2)c2ccc(N(C)C)cc2)cc1 [METHYLROSANILINE] | > 2.5 | > 1 | > 2.5 | > 1 | > 1 | > 1 | > 1

Reference: ChEMBL document CHEMBL3301562, “MMV Box screening against Plasmodium falciparum protein kinases and aminoacyl tRNA synthetases”
